Measured values published in publication PMC5335257, “Promoting in vivo remyelination with small molecules: a neuroreparative pharmacological treatment for Multiple Sclerosis” (Scientific Reports, 2017).

Columns and labels:
[1] = system: corpus callosum of LPC-injected mice; assay: In vivo remyelination, LPC demyelination model; set-up: species or system C57/BL6 male mice; settings: 10 mg/kg i.p. from 9 dpi
Method: Anaesthetized 8 week old C57/BL6 male mice were injected with 2 μl of 1% LPC through a hole drilled in the skull at stereotactic coordinates 1.2 mm posterior, 0.5 mm lateral, 1.4 mm deep to the bregma over 4 minutes using a 30-gauge needle attached to a Hamilton syringe, driven by a KD Scientific Nano pump, for 4 minutes to reduce backflow as previously described. At 9 days post injection (dpi), the first intraperitoneal dose of PDE7-GSK3 inhibitors (VP1.15 or VP3.15; 10 mg/kg of animal) was injected using the same solution detailed above for the cuprizone model. Each inhibitor was injected into a group of 10 mice and another group of 10 mice was injected with the vehicle. Two days after, a second dose was injected (11 dpi) and 5 mice of each group were perfused at 14 dpi with 4% PFA and 2% glutaraldehyde (GTA) in phosphate buffer. The remaining 5 animals of each group received a third injection of inhibitors (15 dpi) and were perfused at 21 dpi. A control group of 3 non-lesioned and non-treated mice was used as control. Fixed brains were post-fixed in 1% GTA for 7 days and then coronally cut into 1 mm slices. The slices containing the injected areas were selected and the area of interest was cut and processed for electron microscopy into a resin (Araldite/TAAB 812 Resin Kit, TAAB) following manufacturer instructions.
In order to detect the injured areas for investigation, sagittal semi-thin sections (1 μm) were cut using an ultramicrotome (Leica) and stained with toluidine blue. Ultra-thin sections (60 nm thick) were cut and stained in uranyl acetate and lead citrate and the ultrastructure was analysed taking images with a GatanOrius CCD camera coupled to a transmission electronic microscope (Philips CM120). The percentage of myelinated fibres and the thickness of myelin sheaths were examined. The mean percentage of myelinated fibres was measured from 10 fields per animal. Grids were overlaid onto the images and all axons intersecting with the grid lines were counted as myelinated or not[83][84]. The thickness of myelin around myelinated fibres was expressed as a g-ratio (axon perimeter divided by myelinated fibre perimeter) using ImageJ by tracing around a minimum of 100 individual fibres per mouse, using a pen and electronic pad (Bamboo pad, Wacom). To select the fibres randomly, a grid composed by 8 μm[2] squares was overlaid onto the images and fibres in alternate squares were measured. Data were expressed as the mean ± SEM.

OPCs from P0 mice = assay: Survival assay (Casp3+-A2B5+ cells); format: cell-based, mouse; settings: murine P0 OPCs, 1 μM, 2 DIV
Method: We isolated OPCs, as previously described. Briefly, a stock papain solution was prepared containing ([…]; Worthington Biochemical), L-cysteine (0.2 mg/ml; Sigma), and EDTA (0.2 mg/ml; Sigma) in Hank’s Balanced Salt Solution (HBSS; Invitrogen) without Ca^2+ and Mg[2]. Then, the cerebral cortices of P0 CD1 mice were dissected out and placed for 5 minutes at 37 °C in a medium containing the stock papain solution in HBSS with Ca^2+ and Mg^2+ (1:10; Invitrogen) in order to easily remove the meninges. Once meninges and choroid plexus were removed, the tissue was enzymatically dissociated for 5 minutes at 37 °C again by using the papain solution (1:10 in HBSS without Ca^2+ and Mg^2+) and the digested tissue was then filtered through a 100 μm nylon mesh strainer (BD Biosciences) and seeded on poly-L-ornithine-coated (Sigma) 75 cm^2 flasks in DMEM medium (Invitrogen) containing 10% foetal bovine serum (FBS; BioWhittaker) and 100 U/mL penicillin, 0.1 mg/mL streptomycin and 0.25 μg/ml Amphotericin B antibiotic antimycotic solution (Sigma). Cultures were maintained at 37 °C and 5% CO2, and the medium was changed every 3 days. […] The resulting enriched oligodendrocyte progenitor cell suspension was counted and seeded. […]

Question: With c1ccc(-c2n/c(=N/CCN3CCOCC3)sn2-c2ccccc2)cc1 [VP3.15] as the compound, how does the “thickness of myelin sheaths (G-ratio) vs untreated demyelinated control” value [1] read?
Answer: The value was “increased the thickness”.

Question: And the “percentage of myelinated callosal fibers vs vehicle” value ([1]; analysed at 14 or 21 dpi)?
Answer: Its value is “did not show any effect”.

Question: What about the “OPC survival (Casp3+-A2B5+ apoptotic cells)” value (OPCs from P0 mice) of the same compound?
Answer: Its value is “without affecting”.
